Laboratory results as given in patent US20020137929A1, “1 - (3-heterocyclylphenyl) isothiourea, -isourea, -guanidine and -amidine herbicidal agents” (Intellectual Property Department, BASF Aktiengesellschaft, priority 1998, published 2002).

Experiments:
[1] = system: AMBEL (Ragweed, Common); assay: Postemergence herbicidal evaluation; assay type: in vivo, Ambrosia artemisifolia
How it was run: (§1)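 First, seedlings were raised for around two weeks. Next, test material in 50/50 acetone/water containing 0.5% TWEEN 20 was sprayed through a nozzle at 40 psi, equivalent to about 0.0156–0.500 kg/ha. Finally, after 4–5 weeks in the greenhouse, plants were rated 0–9.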

[2] = system: CASOB (Sicklepod); assay: Postemergence herbicidal evaluation; assay type: in vivo, Cassia obtusifolia
How it was run: as §1

[3] = system: GALAP (Galium); assay: Postemergence herbicidal evaluation; assay type: in vivo, Galium aparine
How it was run: as §1

[4] = system: IPOHE (Morningglory, Ivyleaf); assay: Postemergence herbicidal evaluation; assay type: in vivo, Ipomoea hederacea
How it was run: as §1

[5] = system: ABUTH (Velvetleaf); assay: Preemergence herbicidal evaluation; assay type: in vivo, Abutilon theophrasti; details: rated 4-5 weeks after treatment
How it was run: (§2)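 Sown cups got a single aqueous acetone spray of test compound (roughly 0.0156–0.500 kg/ha) before seedlings emerged. Evaluation, 4–5 weeks on, used a 0–9 visual scale covering plant stand, vigor, size, malformation, chlorosis and general appearance compared with controls.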

[6] = system: CASOB (Sicklepod); assay: Preemergence herbicidal evaluation; assay type: in vivo, Cassia obtusifolia; details: rated 4-5 weeks after treatment
How it was run: as §2

[7] = system: IPOHE (Morningglory, Ivyleaf); assay: Preemergence herbicidal evaluation; assay type: in vivo, Ipomoea hederacea; details: rated 4-5 weeks after treatment
How it was run: as §2

[8] = system: ECHCG (Barnyardgrass); assay: Preemergence herbicidal evaluation; assay type: in vivo, Echinochloa crus-galli; details: rated 4-5 weeks after treatment
How it was run: as §2

[9] = system: GLXMAW (Soybean, Williams); assay: Preemergence herbicidal evaluation; assay type: in vivo, Glycine max, (L.) Merr. cv Williams; details: rated 4-5 weeks after treatment
How it was run: as §2

[10] = system: TRZAWR (Wheat, Winter, cv Riband); assay: Preemergence herbicidal evaluation; assay type: in vivo, Triticum aestivum; details: rated 4-5 weeks after treatment
How it was run: as §2

[11] = system: ZEAMX (Corn, Field); assay: Preemergence herbicidal evaluation; assay type: in vivo, Zea mays; details: rated 4-5 weeks after treatment
How it was run: as §2

[12] = system: SAGPY (Arrowhead (Pygmaea)); assay: Preemergence weed control under flooded paddy conditions; assay type: in vivo, Sagittaria pygmaea; details: rated 3-4 weeks after treatment
How it was run: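 First, seeds or propagules go into the top 0.5 cm of silt loam; next, water is held 1.5 to 3 cm over the soil; then compound (50/50 acetone/water) is pipetted into it at about 0.0313 to 0.500 kg/ha; finally plants are rated visually 0-9 after three to four weeks.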

[13] = system: CYPIR (Rice Flatsedge); assay: Postemergence weed control under flooded paddy conditions; assay type: in vivo, Cyperus iria; details: postemergence weeds, 3-4 weeks after treatment
How it was run: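 Herbicidal effect is judged by eye on a 0–9 scale versus control, 3–4 weeks after dosing. Dosing is into flood water kept 1.5–3 cm over the soil, at about 0.0313–0.500 kg/ha in aqueous/acetone 50/50 v/v, on 3–5 cm weeds and 1.5–2.5-leaf rice seedlings.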

CCOC(=O)CCN1C(=O)CSC1=Nc1cc(-n2c(=O)cc(C(F)(F)F)n(C)c2=O)c(Cl)cc1Cl [Compound 32, Ethyl 2-{{2,4-dichloro-5-[3,6-dihydro-3-methyl-2,6-dioxo-4-(trifluoromethyl)-1(2H)-pyrimidinyl]-phenyl}imino}-4-oxo-3-thiazolidinepropionate]
Postemergence herbicidal rating AMBEL ([1]; Rate 0.0158 kg/ha): 3.0 | Postemergence herbicidal rating AMBEL ([1]; Rate 0.0313 kg/ha): 0.0 | Postemergence herbicidal rating AMBEL ([1]; Rate 0.0625 kg/ha): 3.0 | Postemergence herbicidal rating AMBEL ([1]; Rate 0.1250 kg/ha): 9.0 | Postemergence herbicidal rating CASOB ([2]; Rate 0.0158 kg/ha): 0.0 | Postemergence herbicidal rating CASOB ([2]; Rate 0.0313 kg/ha): 0.0 | Postemergence herbicidal rating CASOB ([2]; Rate 0.0625 kg/ha): 0.0 | Postemergence herbicidal rating CASOB ([2]; Rate 0.1250 kg/ha): 3.0 | Postemergence herbicidal rating GALAP ([3]; Rate 0.0158 kg/ha): 0.0 | Postemergence herbicidal rating GALAP ([3]; Rate 0.0313 kg/ha): 0.0 | Postemergence herbicidal rating GALAP ([3]; Rate 0.0625 kg/ha): 0.0 | Postemergence herbicidal rating GALAP ([3]; Rate 0.1250 kg/ha): 2.0 | Postemergence herbicidal rating IPOHE ([4]; Rate 0.0158 kg/ha): 9.0 | Postemergence herbicidal rating IPOHE ([4]; Rate 0.0313 kg/ha): 9.0 | Postemergence herbicidal rating IPOHE ([4]; Rate 0.0625 kg/ha): 9.0 | Postemergence herbicidal rating IPOHE ([4]; Rate 0.1250 kg/ha): 9.0 | Preemergence herbicidal rating ABUTH ([5]; rate 0.0156 kg/ha): 0.0 | Preemergence herbicidal rating ABUTH ([5]; rate 0.0313 kg/ha): 2.5 | Preemergence herbicidal rating ABUTH ([5]; rate 0.0625 kg/ha): 1.5 | Preemergence herbicidal rating ABUTH ([5]; rate 0.1250 kg/ha): 9.0 | Preemergence herbicidal rating ABUTH ([5]; rate 0.2500 kg/ha): 9.0 | Preemergence herbicidal rating ABUTH ([5]; rate 0.5000 kg/ha): 9.0 | Preemergence herbicidal rating CASOB ([6]; rate 0.0156 kg/ha): 0.5 | Preemergence herbicidal rating CASOB ([6]; rate 0.0313 kg/ha): 0.0 | Preemergence herbicidal rating CASOB ([6]; rate 0.0625 kg/ha): 0.0 | Preemergence herbicidal rating CASOB ([6]; rate 0.1250 kg/ha): 0.0 | Preemergence herbicidal rating CASOB ([6]; rate 0.2500 kg/ha): 0.0 | Preemergence herbicidal rating CASOB ([6]; rate 0.5000 kg/ha): 0.0 | Preemergence herbicidal rating IPOHE ([7]; rate 0.0156 kg/ha): 0.0 | Preemergence herbicidal rating IPOHE ([7]; rate 0.0313 kg/ha): 0.0 | Preemergence herbicidal rating IPOHE ([7]; rate 0.0625 kg/ha): 0.5 | Preemergence herbicidal rating IPOHE ([7]; rate 0.1250 kg/ha): 0.5 | Preemergence herbicidal rating IPOHE ([7]; rate 0.2500 kg/ha): 0.0 | Preemergence herbicidal rating IPOHE ([7]; rate 0.5000 kg/ha): 1.0 | Preemergence herbicidal rating ECHCG ([8]; rate 0.0156 kg/ha): 0.0 | Preemergence herbicidal rating ECHCG ([8]; rate 0.0313 kg/ha): 0.0 | Preemergence herbicidal rating ECHCG ([8]; rate 0.0625 kg/ha): 0.0 | Preemergence herbicidal rating ECHCG ([8]; rate 0.1250 kg/ha): 0.5 | Preemergence herbicidal rating ECHCG ([8]; rate 0.2500 kg/ha): 0.0 | Preemergence herbicidal rating ECHCG ([8]; rate 0.5000 kg/ha): 1.0 | Preemergence herbicidal rating GLXMAW ([9]; rate 0.0156 kg/ha): 0.0 | Preemergence herbicidal rating GLXMAW ([9]; rate 0.0313 kg/ha): 0.5 | Preemergence herbicidal rating GLXMAW ([9]; rate 0.0625 kg/ha): 0.5 | Preemergence herbicidal rating GLXMAW ([9]; rate 0.1250 kg/ha): 0.5 | Preemergence herbicidal rating GLXMAW ([9]; rate 0.2500 kg/ha): 1.0 | Preemergence herbicidal rating GLXMAW ([9]; rate 0.5000 kg/ha): 3.0 | Preemergence herbicidal rating TRZAWR ([10]; rate 0.0156 kg/ha): 0.0 | Preemergence herbicidal rating TRZAWR ([10]; rate 0.0313 kg/ha): 0.0 | Preemergence herbicidal rating TRZAWR ([10]; rate 0.0625 kg/ha): 0.0 | Preemergence herbicidal rating TRZAWR ([10]; rate 0.1250 kg/ha): 0.0 | Preemergence herbicidal rating TRZAWR ([10]; rate 0.2500 kg/ha): 1.0 | Preemergence herbicidal rating TRZAWR ([10]; rate 0.5000 kg/ha): 3.0 | Preemergence herbicidal rating ZEAMX ([11]; rate 0.0156 kg/ha): 0.0 | Preemergence herbicidal rating ZEAMX ([11]; rate 0.0313 kg/ha): 0.0 | Preemergence herbicidal rating ZEAMX ([11]; rate 0.0625 kg/ha): 0.0 | Preemergence herbicidal rating ZEAMX ([11]; rate 0.1250 kg/ha): 0.5 | Preemergence herbicidal rating ZEAMX ([11]; rate 0.2500 kg/ha): 4.5 | Preemergence herbicidal rating ZEAMX ([11]; rate 0.5000 kg/ha): 6.0 | Herbicidal rating SAGPY ([12]; 0.1250 kg/ha): 0.0 | Herbicidal rating SAGPY ([12]; 0.2500 kg/ha): 0.0 | Herbicidal rating CYPIR ([13]; rate 0.1250 kg/ha): 0.0 | Herbicidal rating CYPIR ([13]; rate 0.2500 kg/ha): 0.0
